What was measured:
Format in all cases: cell-based
[1] = target: T1, PLK1 (Homo sapiens, UniProt P53350); assay: Luciferase assay for PLK1 in HeLa LgBit (Plk1-HiBit KI) cell line; conditions: 300 nM compound, luminescence after 9 hours
T1 construct: endogenous in cells; host or cells: HeLa LgBit (Plk1-HiBit KI): HeLa stably expressing LgBit, with a CRISPR/Cas9 knock-in of HiBit at the endogenous PLK1 locus
How it was run: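 HeLa cells stably expressing LgBit, with HiBit knocked in at the C-terminus of endogenous Plk1, released from a 24 h 2 mM thymidine block and grown 18 h. Endurazine added, then compound at 300 nM; luminescence tracked in real time, expressed as ratio to DMSO.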

[2] = tested on: MRC-5 cell line; assay: Cell viability assay for MRC-5 cell line (EZ-Cytox); conditions: Homo sapiens, MRC5, 120 h; MRC-5 normal cell line, 5 days, 10000 nM to 1.52 nM; N.D. = no cytotoxicity until 10 μM; read-out: Activity: IC50 value of Exemplary Compound to MRC-5 cell line
Experimental: 4. Cell Viability Assay for MRC-5 Cell Line
(1) Culture of MRC-5 Cell Line
Passage of cultured cells was maintained within P15.
(2) Treatment of Compounds of the Present Invention
Then, it was cultured in 37° C.
(3) Cytotoxicity Experiment
CO2 incubator for 4 hours.

[3] = tested on: NCI-H526 cell line; assay: Cell viability assay for H526 cell (EZ-Cytox); conditions: Homo sapiens, NCI-H526, 120 h; H526 cells, 5 days, 3000 nM to 0.46 nM
How it was run: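 NCI-H526 cells were exposed to compound in CO2 incubator culture for 5 days. Viability was read by EZ-Cytox absorbance at 450 nm after 3 min shaking, giving IC50 values.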

T1 sequence (P53350 whole entry): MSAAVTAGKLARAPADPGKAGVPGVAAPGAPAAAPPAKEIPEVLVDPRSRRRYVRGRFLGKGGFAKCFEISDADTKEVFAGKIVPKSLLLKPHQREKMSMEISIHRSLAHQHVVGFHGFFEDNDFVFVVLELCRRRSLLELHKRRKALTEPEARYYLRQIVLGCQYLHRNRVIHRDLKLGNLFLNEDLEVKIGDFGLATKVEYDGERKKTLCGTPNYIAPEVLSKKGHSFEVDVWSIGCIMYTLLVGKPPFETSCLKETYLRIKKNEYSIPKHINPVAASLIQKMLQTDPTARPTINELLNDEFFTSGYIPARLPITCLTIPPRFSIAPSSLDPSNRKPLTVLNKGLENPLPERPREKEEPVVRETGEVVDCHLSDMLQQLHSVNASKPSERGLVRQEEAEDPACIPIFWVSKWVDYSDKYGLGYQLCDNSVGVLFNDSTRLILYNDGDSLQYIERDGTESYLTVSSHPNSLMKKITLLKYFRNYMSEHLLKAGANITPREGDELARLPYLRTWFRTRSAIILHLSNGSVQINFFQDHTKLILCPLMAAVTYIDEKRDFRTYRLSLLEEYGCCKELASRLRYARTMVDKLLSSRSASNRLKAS

SMILES: COc1cc(C(=O)N[C@H]2CC[C@H](N(C)CCCOc3cccc4c3C(=O)N(C3CCC(=O)NC3=O)C4=O)CC2)ccc1Nc1ncc2c(n1)N(C1CCCC1)CC(F)(F)C(=O)N2C (stereo partly drawn) [Compound 15, 4-((9-cyclopentyl-7,7-difluoro-5-methyl-6-oxo-6,7,8,9-tetrahydro-5H-pyrimido[4,5-b][1,4]diazepin-2-yl)amino)-N-((1r,4r)-4-((3-((2-(2,6-dioxopiperidin-3-yl)-1,3-dioxoisoindolin-4-yl)oxy)propyl)(methyl)amino)cyclohexyl)-3-methoxybenzamide]
- Activity: ratio of the luminescense value of each Exemplary Compound treatment group to DMSO treatment group [1]: ++ (++<0.6)
- IC50 [2]: 16.7 µM
- IC50 [3]: < 0.05 µM

SMILES: COc1cc(C(=O)NC2CCN(CCOCCOCCNc3cccc4c3CN(C3CCC(=O)NC3=O)C4=O)CC2)ccc1Nc1ncc2c(n1)N(C1CCCC1)CC(F)(F)C(=O)N2C (stereo not drawn) [Compound 18, 4-((9-cyclopentyl-7,7-difluoro-5-methyl-6-oxo-6,7,8,9-tetrahydro-5H-pyrimido[4,5-b][1,4]diazepin-2-yl)amino)-N-(1-(2-(2-(2-((2-(2,6-dioxopiperidin-3-yl)-1-oxoisoindolin-4-yl)amino)ethoxy)ethoxy)ethyl)piperidin-4-yl)-3-methoxybenzamide]
- Activity: ratio of the luminescense value of each Exemplary Compound treatment group to DMSO treatment group [1]: ++ (++<0.6)
- IC50 [2]: > 10 µM
- IC50 [3]: < 0.03 µM

SMILES: COc1cc(C(=O)NC2CCN(C(=O)CCCNc3cccc4c3C(=O)N(C3CCC(=O)NC3=O)C4=O)CC2)ccc1Nc1ncc2c(n1)N(C1CCCC1)CC(F)(F)C(=O)N2C (stereo not drawn) [Compound 25, 4-((9-cyclopentyl-7,7-difluoro-5-methyl-6-oxo-6,7,8,9-tetrahydro-5H-pyrimido[4,5-b][1,4]diazepin-2-yl)amino)-N-(1-(4-((2-(2,6-dioxopiperidin-3-yl)-1,3-dioxoisoindolin-4-yl)amino)butanoyl)piperidin-4-yl)-3-methoxybenzamide]
- Activity: ratio of the luminescense value of each Exemplary Compound treatment group to DMSO treatment group [1]: ++ (++<0.6)
- IC50 [2]: > 10 µM
- IC50 [3]: < 0.05 µM

SMILES: COc1cc(C(=O)NC2CCN(C(=O)CCCNc3cccc4c3CN(C3CCC(=O)NC3=O)C4=O)CC2)ccc1Nc1ncc2c(n1)N(C1CCCC1)CC(F)(F)C(=O)N2C (stereo not drawn) [Compound 26, 4-((9-cyclopentyl-7,7-difluoro-5-methyl-6-oxo-6,7,8,9-tetrahydro-5H-pyrimido[4,5-b][1,4]diazepin-2-yl)amino)-N-(1-(4-((2-(2,6-dioxopiperidin-3-yl)-1-oxoisoindolin-4-yl)amino)butanoyl)piperidin-4-yl)-3-methoxybenzamide]
- Activity: ratio of the luminescense value of each Exemplary Compound treatment group to DMSO treatment group [1]: ++ (++<0.6)
- IC50 [2]: > 10 µM
- IC50 [3]: < 0.05 µM

SMILES: COc1cc(C(=O)NC2CCN(C(=O)CCCOc3cccc4c3C(=O)N(C3CCC(=O)NC3=O)C4=O)CC2)c(F)cc1Nc1ncc2c(n1)N(C1CCCC1)CC(F)(F)C(=O)N2C (stereo not drawn) [Compound 30, 4-((9-cyclopentyl-7,7-difluoro-5-methyl-6-oxo-6,7,8,9-tetrahydro-5H-pyrimido[4,5-b][1,4]diazepin-2-yl)amino)-N-(1-(4-((2-(2,6-dioxopiperidin-3-yl)-1,3-dioxoisoindolin-4-yl)oxy)butanoyl)piperidin-4-yl)-2-fluoro-5-methoxybenzamide]
- Activity: ratio of the luminescense value of each Exemplary Compound treatment group to DMSO treatment group [1]: ++ (++<0.6)
- IC50 [2]: > 10 µM
- IC50 [3]: < 0.1 µM

SMILES: COc1cc(C(=O)NC2CCN(C(=O)CCCOc3cccc4c3C(=O)N(C3CCC(=O)NC3=O)C4=O)CC2)ccc1Nc1ncc2c(n1)N(C1CCCC1)CC(F)(F)C(=O)N2C (stereo not drawn) [Compound 31, 4-((9-cyclopentyl-7,7-difluoro-5-methyl-6-oxo-6,7,8,9-tetrahydro-5H-pyrimido[4,5-b][1,4]diazepin-2-yl)amino)-N-(1-(4-((2-(2,6-dioxopiperidin-3-yl)-1,3-dioxoisoindolin-4-yl)oxy)butanoyl)piperidin-4-yl)-3-methoxybenzamide]
- Activity: ratio of the luminescense value of each Exemplary Compound treatment group to DMSO treatment group [1]: +++ (+++: <0.3)
- IC50 [2]: > 10 µM
- IC50 [3]: < 0.1 µM

SMILES: COc1cc(C(=O)NC2CCN(C(=O)CCCOc3cccc4c3CN(C3CCC(=O)NC3=O)C4=O)CC2)ccc1Nc1ncc2c(n1)N(C1CCCC1)CC(F)(F)C(=O)N2C (stereo not drawn) [Compound 32, 4-((9-cyclopentyl-7,7-difluoro-5-methyl-6-oxo-6,7,8,9-tetrahydro-5H-pyrimido[4,5-b][1,4]diazepin-2-yl)amino)-N-(1-(4-((2-(2,6-dioxopiperidin-3-yl)-1-oxoisoindolin-4-yl)oxy)butanoyl)piperidin-4-yl)-3-methoxybenzamide]
- Activity: ratio of the luminescense value of each Exemplary Compound treatment group to DMSO treatment group [1]: ++ (++<0.6)
- IC50 [2]: > 10 µM
- IC50 [3]: < 0.05 µM

SMILES: COc1cc(C(=O)NC2CCN(C(=O)COc3cccc4c3C(=O)N(C3CCC(=O)NC3=O)C4=O)CC2)ccc1Nc1ncc2c(n1)N(C1CCCC1)CC(F)(F)C(=O)N2C (stereo not drawn) [Compound 38, 4-((9-cyclopentyl-7,7-difluoro-5-methyl-6-oxo-6,7,8,9-tetrahydro-5H-pyrimido[4,5-b][1,4]diazepin-2-yl)amino)-N-(1-(2-((2-(2,6-dioxopiperidin-3-yl)-1,3-dioxoisoindolin-4-yl)oxy)acetyl)piperidin-4-yl)-3-methoxybenzamide]
- Activity: ratio of the luminescense value of each Exemplary Compound treatment group to DMSO treatment group [1]: ++ (++<0.6)
- IC50 [2]: > 10 µM
- IC50 [3]: < 0.2 µM

SMILES: COc1cc(C(=O)N[C@@H]2CCN(C(=O)COc3cccc4c3C(=O)N(C3CCC(=O)NC3=O)C4=O)C2)ccc1Nc1ncc2c(n1)N(C1CCCC1)CC(F)(F)C(=O)N2C (stereo partly drawn) [Compound 39, 4-((9-cyclopentyl-7,7-difluoro-5-methyl-6-oxo-6,7,8,9-tetrahydro-5H-pyrimido[4,5-b][1,4]diazepin-2-yl)amino)-N-((3R)-1-(2-((2-(2,6-dioxopiperidin-3-yl)-1,3-dioxoisoindolin-4-yl)oxy)acetyl)pyrrolidin-3-yl)-3-methoxybenzamide]
- Activity: ratio of the luminescense value of each Exemplary Compound treatment group to DMSO treatment group [1]: ++ (++<0.6)
- IC50 [2]: > 10 µM
- IC50 [3]: < 0.1 µM

SMILES: COc1cc(C(=O)N[C@H]2CCN(C(=O)COc3cccc4c3C(=O)N(C3CCC(=O)NC3=O)C4=O)C2)ccc1Nc1ncc2c(n1)N(C1CCCC1)CC(F)(F)C(=O)N2C (stereo partly drawn) [Compound 40, 4-((9-cyclopentyl-7,7-difluoro-5-methyl-6-oxo-6,7,8,9-tetrahydro-5H-pyrimido[4,5-b][1,4]diazepin-2-yl)amino)-N-((3S)-1-(2-((2-(2,6-dioxopiperidin-3-yl)-1,3-dioxoisoindolin-4-yl)oxy)acetyl)pyrrolidin-3-yl)-3-methoxybenzamide]
- Activity: ratio of the luminescense value of each Exemplary Compound treatment group to DMSO treatment group [1]: ++ (++<0.6)
- IC50 [2]: > 10 µM
- IC50 [3]: < 0.2 µM

SMILES: COc1cc(C(=O)NC2CCN(C(=O)CSc3cccc4c3C(=O)N(C3CCC(=O)NC3=O)C4=O)CC2)c(F)cc1Nc1ncc2c(n1)N(C1CCCC1)CC(F)(F)C(=O)N2C (stereo not drawn) [Compound 41, 4-((9-cyclopentyl-7,7-difluoro-5-methyl-6-oxo-6,7,8,9-tetrahydro-5H-pyrimido[4,5-b][1,4]diazepin-2-yl)amino)-N-(1-(2-((2-(2,6-dioxopiperidin-3-yl)-1,3-dioxoisoindolin-4-yl)thio)acetyl)piperidin-4-yl)-2-fluoro-5-methoxybenzamide]
- Activity: ratio of the luminescense value of each Exemplary Compound treatment group to DMSO treatment group [1]: ++ (++<0.6)
- IC50 [2]: > 10 µM
- IC50 [3]: < 0.2 µM

SMILES: COc1cc(C(=O)NC2CCN(C(=O)CC3CCN(c4cccc5c4C(=O)N(C4CCC(=O)NC4=O)C5=O)C3)CC2)c(F)cc1Nc1ncc2c(n1)N(C1CCCC1)CC(F)(F)C(=O)N2C (stereo not drawn) [Compound 44, 4-((9-cyclopentyl-7,7-difluoro-5-methyl-6-oxo-6,7,8,9-tetrahydro-5H-pyrimido[4,5-b][1,4]diazepin-2-yl)amino)-N-(1-(2-(1-(2-(2,6-dioxopiperidin-3-yl)-1,3-dioxoisoindolin-4-yl)pyrrolidin-3-yl)acetyl)piperidin-4-yl)-2-fluoro-5-methoxybenzamide]
- Activity: ratio of the luminescense value of each Exemplary Compound treatment group to DMSO treatment group [1]: ++ (++<0.6)
- IC50 [2]: > 10 µM
- IC50 [3]: < 0.1 µM

SMILES: COc1cc(C(=O)NC2CCN(C(=O)CC3CCN(c4ccc5c(c4)C(=O)N(C4CCC(=O)NC4=O)C5=O)C3)CC2)c(F)cc1Nc1ncc2c(n1)N(C1CCCC1)CC(F)(F)C(=O)N2C (stereo not drawn) [Compound 45, 4-((9-cyclopentyl-7,7-difluoro-5-methyl-6-oxo-6,7,8,9-tetrahydro-5H-pyrimido[4,5-b][1,4]diazepin-2-yl)amino)-N-(1-(2-(1-(2-(2,6-dioxopiperidin-3-yl)-1,3-dioxoisoindolin-5-yl)pyrrolidin-3-yl)acetyl)piperidin-4-yl)-2-fluoro-5-methoxybenzamide]
- Activity: ratio of the luminescense value of each Exemplary Compound treatment group to DMSO treatment group [1]: ++ (++<0.6)
- IC50 [2]: > 10 µM
- IC50 [3]: < 0.1 µM

SMILES: COc1cc(C(=O)NC2CCN(C[C@H]3CCN(c4ccc5c(c4)C(=O)N(C4CCC(=O)NC4=O)C5=O)C3)CC2)ccc1Nc1ncc2c(n1)N(C1CCCC1)CC(F)(F)C(=O)N2C (stereo partly drawn) [Compound 49, 4-((9-cyclopentyl-7,7-difluoro-5-methyl-6-oxo-6,7,8,9-tetrahydro-5H-pyrimido[4,5-b][1,4]diazepin-2-yl)amino)-N-(1-(((3R)-1-(2-(2,6-dioxopiperidin-3-yl)-1,3-dioxoisoindolin-5-yl)pyrrolidin-3-yl)methyl)piperidin-4-yl)-3-methoxybenzamide]
- Activity: ratio of the luminescense value of each Exemplary Compound treatment group to DMSO treatment group [1]: ++ (++<0.6)
- IC50 [2]: > 10 µM
- IC50 [3]: < 0.05 µM

Reference: patent US20250114460A1, “NOVEL PLK1 DEGRADATION INDUCING COMPOUND” (UPPTHERA, INC., priority 2021, published 2025)
